Experimental data taken from patent publication US11021493B2, “1,4-thiazine dioxide and 1,2,4-thiadiazine dioxide derivatives as beta-secretase inhibitors and methods of use” (AMGEN INC., priority 2016, dated 2021).

Legend:
human recombinant BACE2 = human recombinant BACE2 (Homo sapiens (Human), UniProt Q9Y5Z0); assay: In vitro enzymatic BACE2 FRET assay; assay type: biochemical; settings: read-out: BACE2 Enzyme IC50
BACE1 [1] = biological target: T1, BACE1 (Homo sapiens (Human), UniProt P56817); assay: In vitro enzymatic BACE1 FRET assay; assay type: biochemical; settings: read-out: BACE1 Enzyme IC50
Target sequence in this assay (P56817 46-501): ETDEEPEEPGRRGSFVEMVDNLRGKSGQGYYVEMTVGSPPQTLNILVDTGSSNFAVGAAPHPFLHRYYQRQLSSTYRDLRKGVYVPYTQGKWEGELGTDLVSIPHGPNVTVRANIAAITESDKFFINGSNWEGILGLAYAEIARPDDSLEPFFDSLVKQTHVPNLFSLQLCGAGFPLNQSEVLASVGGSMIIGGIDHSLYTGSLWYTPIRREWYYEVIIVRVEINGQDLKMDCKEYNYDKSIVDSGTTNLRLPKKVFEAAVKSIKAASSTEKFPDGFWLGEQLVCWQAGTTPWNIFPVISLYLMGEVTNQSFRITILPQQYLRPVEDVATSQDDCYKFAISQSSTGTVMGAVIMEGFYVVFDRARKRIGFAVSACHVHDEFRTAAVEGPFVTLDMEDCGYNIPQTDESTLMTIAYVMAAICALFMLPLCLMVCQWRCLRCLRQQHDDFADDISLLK

BACE1 [2] = biological target: T1, BACE1; assay: In vitro BACE1 cell-based assay (Aβ40 in conditioned medium of cells stably expressing APP, HTRF); settings: Aβ40 in conditioned media after 24 h incubation
Target sequence in this assay (P56817 46-501, species assumed): as the sequence (P56817 46-501) above

Cathepsin D (CatD) = Cathepsin D (CatD) (Homo sapiens (Human), UniProt P07339); assay: In vitro enzymatic Cathepsin D (CatD) FRET assay; assay type: biochemical; settings: read-out: Cat D Enzyme IC50
Sequence of Cathepsin D (CatD) (P07339 65-412, species assumed): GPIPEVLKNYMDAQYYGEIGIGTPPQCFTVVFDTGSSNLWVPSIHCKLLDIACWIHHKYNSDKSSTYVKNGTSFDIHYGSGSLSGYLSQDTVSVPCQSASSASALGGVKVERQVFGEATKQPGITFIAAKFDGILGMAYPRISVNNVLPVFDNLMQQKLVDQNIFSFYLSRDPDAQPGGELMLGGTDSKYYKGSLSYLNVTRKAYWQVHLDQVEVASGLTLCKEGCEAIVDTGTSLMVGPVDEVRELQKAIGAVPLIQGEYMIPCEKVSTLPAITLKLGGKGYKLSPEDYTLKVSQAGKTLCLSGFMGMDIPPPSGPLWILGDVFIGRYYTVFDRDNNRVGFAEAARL

Sequence of human recombinant BACE2 (Q9Y5Z0 63-518): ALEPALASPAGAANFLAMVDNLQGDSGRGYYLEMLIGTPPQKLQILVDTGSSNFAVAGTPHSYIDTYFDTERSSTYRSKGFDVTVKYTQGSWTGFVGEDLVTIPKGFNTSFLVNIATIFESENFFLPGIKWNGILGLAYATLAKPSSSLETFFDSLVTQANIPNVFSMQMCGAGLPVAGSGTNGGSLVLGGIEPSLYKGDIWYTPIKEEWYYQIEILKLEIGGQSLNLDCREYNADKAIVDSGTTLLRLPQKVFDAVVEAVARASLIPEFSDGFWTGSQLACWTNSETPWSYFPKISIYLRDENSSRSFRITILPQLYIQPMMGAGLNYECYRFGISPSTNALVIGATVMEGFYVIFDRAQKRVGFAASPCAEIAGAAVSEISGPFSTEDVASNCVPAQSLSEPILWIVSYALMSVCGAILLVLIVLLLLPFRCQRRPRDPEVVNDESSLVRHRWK

SMILES	IC50 (human recombinant BACE2)	IC50 (BACE1 [1])	IC50 (BACE1 [2])	IC50 (Cathepsin D (CatD))
Cc1nnc(COc2cnc(/C(F)=C/c3ccc(F)c([C@@]4(C)N=C(N)[C@@]5(CF)CC[C@@H]4S5(=O)=O)c3)cn2)o1 [Example 119, (1R,4R,5S)-2-amino-4-(2-fluoro-5-((Z)-2-fluoro-2-(5-((5-methyl-1,3,4-oxadiazol-2-yl)methoxy)pyrazin-2-yl)vinyl)phenyl)-1-(fluoromethyl)-4-methyl-8-thia-3-azabicyclo[3.2.1]oct-2-ene 8,8-dioxide]	182 nM	21 nM	60 nM	> 400000 nM
C[C@]1(c2cc(/C=C(\F)c3cnc(OCC(F)(F)C(F)F)cn3)ccc2F)N=C(N)[C@@]2(CF)CC[C@@H]1S2(=O)=O [Example 120, (1R,4R,5S)-2-amino-4-(2-fluoro-5-((Z)-2-fluoro-2-(5-(2,2,3,3-tetrafluoropropoxy)pyrazin-2-yl)vinyl)phenyl)-1-(fluoromethyl)-4-methyl-8-thia-3-azabicyclo[3.2.1]oct-2-ene 8,8-dioxide]	258 nM	37 nM	542 nM	> 400000 nM
COc1cnc(/C(F)=C/c2ccc(F)c([C@@]3(C)N=C(N)[C@@]4(CF)CC[C@@H]3S4(=O)=O)c2)cn1 [Example 121, (1R,4R,5S)-2-amino-4-(2-fluoro-5-((Z)-2-fluoro-2-(5-methoxypyrazin-2-yl)vinyl)phenyl)-1-(fluoromethyl)-4-methyl-8-thia-3-azabicyclo[3.2.1]oct-2-ene 8,8-dioxide]	180 nM	98 nM	191 nM	> 400000 nM
CCOc1cnc(/C(F)=C/c2ccc(F)c([C@@]3(C)N=C(N)[C@@]4(CF)CC[C@@H]3S4(=O)=O)c2)cn1 [Example 122, (1R,4R,5S)-2-amino-4-(5-((Z)-2-(5-ethoxypyrazin-2-yl)-2-fluorovinyl)-2-fluorophenyl)-1-(fluoromethyl)-4-methyl-8-thia-3-azabicyclo[3.2.1]oct-2-ene 8,8-dioxide]	194 nM	54 nM	527 nM	> 400000 nM
CC1(C)C(N)=N[C@](C)(c2cc(/C=C(\F)c3cnc(OCC(F)(F)F)cn3)ccc2F)CS1(=O)=O [Example 124, (R,Z)-5-amino-3-(2-fluoro-5-(2-fluoro-2-(5-(2,2,2-trifluoroethoxy)pyrazin-2-yl)vinyl)phenyl)-3,6,6-trimethyl-3,6-dihydro-2H-1,4-thiazine 1,1-dioxide]	161 nM	39 nM	134 nM	218000 nM
C=CCOc1cnc(/C(F)=C/c2ccc(F)c([C@@]3(C)N=C(N)[C@@]4(CF)CC[C@@H]3S4(=O)=O)c2)cn1 [Example 125, (1R,4R,5S)-4-(5-((Z)-2-(5-(allyloxy)pyrazin-2-yl)-2-fluorovinyl)-2-fluorophenyl)-2-amino-1-(fluoromethyl)-4-methyl-8-thia-3-azabicyclo[3.2.1]oct-2-ene 8,8-dioxide]	163 nM	48 nM	446 nM	91200 nM
C[C@]1(c2cc(/C=C(\F)c3cnc(OCC4COC4)cn3)ccc2F)N=C(N)[C@@]2(CF)CC[C@@H]1S2(=O)=O [Example 126, (1R,4R,5S)-2-amino-4-(2-fluoro-5-((Z)-2-fluoro-2-(5-(oxetan-3-ylmethoxy)pyrazin-2-yl)vinyl)phenyl)-1-(fluoromethyl)-4-methyl-8-thia-3-azabicyclo[3.2.1]oct-2-ene 8,8-dioxide]	141 nM	138 nM	457 nM	100000 nM
CC1(C)C(N)=N[C@](C)(c2cc(/C=C(\F)c3cnc(OCc4ncco4)cn3)ccc2F)CS1(=O)=O [Example 129, (R,Z)-5-amino-3-(2-fluoro-5-(2-fluoro-2-(5-(oxazol-2-ylmethoxy)pyrazin-2-yl)vinyl)phenyl)-3,6,6-trimethyl-3,6-dihydro-2H-1,4-thiazine 1,1-dioxide]	56 nM	7 nM	5 nM	163000 nM
COCCOc1cnc(/C(F)=C/c2ccc(F)c([C@@]3(C)N=C(N)[C@@]4(CF)CC[C@@H]3S4(=O)=O)c2)cn1 [Example 130, (1R,4R,5S)-2-amino-4-(2-fluoro-5-((Z)-2-fluoro-2-(5-(2-methoxyethoxy)pyrazin-2-yl)vinyl)phenyl)-1-(fluoromethyl)-4-methyl-8-thia-3-azabicyclo[3.2.1]oct-2-ene 8,8-dioxide]	163 nM	33 nM	60 nM	173000 nM
COC[C@H](C)Oc1cnc(/C(F)=C/c2ccc(F)c([C@@]3(C)N=C(N)[C@@]4(CF)CC[C@@H]3S4(=O)=O)c2)cn1 [Example 131, (1R,4R,5S)-2-amino-4-(2-fluoro-5-((Z)-2-fluoro-2-(5-(((S)-1-methoxypropan-2-yl)oxy)pyrazin-2-yl)vinyl)phenyl)-1-(fluoromethyl)-4-methyl-8-thia-3-azabicyclo[3.2.1]oct-2-ene 8,8-dioxide]	104 nM	13 nM	97 nM	> 400000 nM
C[C@]1(c2cc(/C=C(\F)c3cnc(OCC4CCC4)cn3)ccc2F)N=C(N)[C@@]2(CF)CC[C@@H]1S2(=O)=O [Example 132, (1R,4R,5S)-2-amino-4-(5-((Z)-2-(5-(cyclobutylmethoxy)pyrazin-2-yl)-2-fluorovinyl)-2-fluorophenyl)-1-(fluoromethyl)-4-methyl-8-thia-3-azabicyclo[3.2.1]oct-2-ene 8,8-dioxide]	217 nM	38 nM	1960 nM	> 400000 nM
C[C@]1(c2cc(/C=C(\F)c3cnc(OCCF)cn3)ccc2F)N=C(N)[C@@]2(CF)CC[C@@H]1S2(=O)=O [Example 133, (1R,4R,5S)-2-amino-4-(2-fluoro-5-((Z)-2-fluoro-2-(5-(2-fluoroethoxy)pyrazin-2-yl)vinyl)phenyl)-1-(fluoromethyl)-4-methyl-8-thia-3-azabicyclo[3.2.1]oct-2-ene 8,8-dioxide]	151 nM	131 nM	339 nM	428000 nM
C[C@]1(c2cc(/C=C(\F)c3cnc(OCC(F)F)cn3)ccc2F)N=C(N)[C@@]2(CF)CC[C@@H]1S2(=O)=O [Example 134, (1R,4R,5S)-2-amino-4-(5-((Z)-2-(5-(2,2-difluoroethoxy)pyrazin-2-yl)-2-fluorovinyl)-2-fluorophenyl)-1-(fluoromethyl)-4-methyl-8-thia-3-azabicyclo[3.2.1]oct-2-ene 8,8-dioxide]	123 nM	101 nM	318 nM	196000 nM
CCCOc1cnc(/C(F)=C/c2ccc(F)c([C@@]3(C)N=C(N)[C@@]4(CF)CC[C@@H]3S4(=O)=O)c2)cn1 [Example 135, (1R,4R,5S)-2-amino-4-(2-fluoro-5-((Z)-2-fluoro-2-(5-propoxypyrazin-2-yl)vinyl)phenyl)-1-(fluoromethyl)-4-methyl-8-thia-3-azabicyclo[3.2.1]oct-2-ene 8,8-dioxide]	120 nM	86 nM	866 nM	> 400000 nM
COC(C)COc1cnc(/C(F)=C/c2ccc(F)c([C@@]3(C)N=C(N)[C@@]4(CF)CC[C@@H]3S4(=O)=O)c2)cn1 (stereo partly drawn) [Example 136, (1R,4R,5S)-2-amino-4-(2-fluoro-5-((Z)-2-fluoro-2-(5-(2-methoxypropoxy)pyrazin-2-yl)vinyl)phenyl)-1-(fluoromethyl)-4-methyl-8-thia-3-azabicyclo[3.2.1]oct-2-ene 8,8-dioxide]	315 nM	51 nM	218 nM	78200 nM
